From BindingDB's records for doi:10.1016/s0960-894x(99)00486-2 (Dupont Pharmaceuticals, 1999)

Biological target: T1, Gag-Pol polyprotein [588-1027]/[588-1147] (Human immunodeficiency virus 1, UniProt P04585)
T1 construct: 588-1027; 588-1147
Assay: HIV-1 RT Assay
Settings: pH 8.2; 37 °C
Excerpt: The IC50 of reverse transcriptase is the concentration that inhibits 50% of recombinant HIV-1 RT RNA-directed DNA polymerase activity in vitro.

Row | SMILES | IC50
1 | O=C1Nc2c(cc(F)c(F)c2F)C(C#CC2CC2)(C(F)(F)F)O1 (stereo not drawn) [4-(2-cyclopropylethynyl)-6,7,8-trifluoro-4-(trifluoromethyl)-2,4-dihydro-1H-3,1-benzoxazin-2-one] | > 2000 nM
2 | O=C1Nc2ccc(-c3ccccc3)cc2C(C#CC2CC2)(C(F)(F)F)O1 (stereo not drawn) [4-(2-cyclopropylethynyl)-6-phenyl-4-(trifluoromethyl)-2,4-dihydro-1H-3,1-benzoxazin-2-one] | > 2000 nM
3 | O=C1Nc2c(Cl)cc(Cl)cc2C(C#CC2CC2)(C(F)(F)F)O1 (stereo not drawn) [6,8-dichloro-4-(2-cyclopropylethynyl)-4-(trifluoromethyl)-2,4-dihydro-1H-3,1-benzoxazin-2-one] | > 2000 nM
